Tests used:
[1] = system: Harmaline-induced tremor; experiment: animal or person; type: in vivo, male Sprague-Dawley rats; conditions: po; for inhibition in vivo at 130 mg/kg / inhibition in vivo at 100 mg/kg / ED50: Rattus norvegicus; for inhibition in vivo at 130 mg/kg / inhibition in vivo at 100 mg/kg: 0.5 h, read-out: Protection % (percentage of activity compared to the vehicle only); for On-set time Mean ± S.E.M. / On-set time Median / Tremor score Mean ± S.E.M. / Tremor score Median: rat, in vivo
[2] = system: MES (electrical stimulus) seizure; experiment: animal or person; type: in vivo, male ICR mice; conditions: for Protection % (percentage of activity compared to the vehicle only): mouse, in vivo
[3] = system: motor abilities on the Rotarod; experiment: Neurotoxicity (Rotarod); type: in vivo; conditions: protective index, mice
Protocol: The measurement of neurotoxicity of the test compounds was conducted by the method of Dunham and Miya [Dunham, N. W. and Miya, T. S. 1957. A note on a simple apparatus for detecting neurological deficit in rats and mice. J. Am. Pharm. Assoc. (Baltimore) 46: 208˜209]. In the method, motor abilities of the test animals can be determined by observing whether the test animals can walk without falling from a rotator, thereby determining the value of neurotoxicity of each compound. […] They were pre-trained on the rotarod (Rotarod; Columbus instrument, rota-max, USA) at 6 rpm for 5 min 24 hr prior to the test. The peak time was determined by administration test material's random dose for 0.5, 1, 2, 4 hour. […] The ratio of TD50 to ED50 (TD50/ED50) is called as a protective index, and useful as a parameter for comparison of pharmaceutical efficacy and neurotoxicity.

CC[C@H](OC(N)=O)[C@@H](O)c1ccccc1Cl [Compound 6, 1-(2-chlorophenyl)-(S)-1-hydroxybutyl-(S)-2-carbamate]
inhibition in vivo at 130 mg/kg [1]: 75%

CC[C@H](OC(N)=O)[C@@H](O)c1ccc(Cl)cc1Cl [Compound 39, 1-(2,4-dichlorophenyl)-(S)-1-hydroxybutyl-(S)-2-carbamate]
inhibition in vivo at 130 mg/kg [1]: 66.7%

CCCNC(=O)O[C@@H](C)[C@@H](O)c1ccccc1Cl [Compound 16, 1-(2-chlorophenyl)-(S)-1-hydroxypropyl-(S)-2-N-propylcarbamate]
Protection % (percentage of activity compared to the vehicle only) [2]: 200 ^a(25%)

C[C@@H](OC(N)=O)[C@H](O)c1c(Cl)cccc1Cl [Compound 46, 1-(2,6-dichlorophenyl)-(R)-1-hydroxypropyl-(R)-2-carbamate]
inhibition in vivo at 100 mg/kg [1]: 58.3%

C[C@H](OC(N)=O)[C@@H](O)c1ccccc1I [Compound 65, 1-(2-iodophenyl)-(S)-1-hydroxypropyl-(S)-2-carbamate]
ED50 [1]: 19.2 mg/kg

C[C@H](OC(N)=O)[C@H](O)c1ccccc1Cl [Compound 5, 1-(2-chlorophenyl)-(R)-1-hydroxypropyl-(S)-2-carbamate]
PI(TD50/ED50 in MES) [3]: 3.3

CCCNC(=O)O[C@H](C)[C@H](O)c1ccccc1Cl (racemic) [Compound 30, 1-(2-chlorophenyl)-1-hydroxypropyl-2-propylcarbamate]
Protection % (percentage of activity compared to the vehicle only) [2]: 200 ^a(25%)

C[C@@H](OC(N)=O)[C@@H](O)c1ccccc1Cl [Compound 4, 1-(2-chlorophenyl)-(S)-1-hydroxypropyl-(R)-2-carbamate]
inhibition in vivo at 100 mg/kg [1]: 66.7%

C[C@@H](OC(N)=O)[C@H](O)c1ccccc1Cl [Compound 2, 1-(2-chlorophenyl)-(R)-1-hydroxypropyl-(R)-2-carbamate]
PI(TD50/ED50 in MES) [3]: 7.3 | inhibition in vivo at 130 mg/kg [1]: 66.7%

C[C@H](OC(N)=O)[C@@H](O)c1ccc(Cl)cc1Cl [Compound 36, 1-(2,4-dichlorophenyl)-(S)-1-hydroxypropyl-(S)-2-carbamate]
inhibition in vivo at 130 mg/kg [1]: 83.3%

C[C@H](OC(N)=O)[C@@H](O)c1ccccc1F [Compound 63, 1-(2-fluorophenyl)-(S)-1-hydroxypropyl-(S)-2-carbamate]
inhibition in vivo at 100 mg/kg [1]: 83.3%

CC[C@H](OC(N)=O)[C@@H](O)c1ccccc1I [Compound 67, 1-(2-iodophenyl)-(S)-1-hydroxybutyl-(S)-2-carbamate]
inhibition in vivo at 100 mg/kg [1]: 83.3%

C[C@H](OC(N)=O)[C@@H](O)c1c(Cl)cccc1Cl [Compound 37, 1-(2,6-dichlorophenyl)-(S)-1-hydroxypropyl-(S)-2-carbamate]
PI(TD50/ED50 in MES) [3]: 5.1 | inhibition in vivo at 130 mg/kg [1]: 91.7%

CC(C)[C@H](OC(N)=O)[C@@H](O)c1ccccc1Cl [Compound 9, 1-(2-chlorophenyl)-(S)-1-hydroxy-3-methyl-butyl-(S)-2-carbamate]
inhibition in vivo at 130 mg/kg [1]: 58.3%

C[C@H](OC(N)=O)[C@@H](O)c1ccccc1Cl [Compound 1, 1-(2-chlorophenyl)-(S)-1-hydroxypropyl-(S)-2-carbamate]
ED50 [1]: 12.9 mg/kg | On-set time Mean ± S.E.M. ([1]; 5 mg/kg): 243 ± 7 s | On-set time Median ([1]; 5 mg/kg): 250 s | Tremor score Mean ± S.E.M. ([1]; 5 mg/kg): 4.8 ± 0.5 | Tremor score Median ([1]; 5 mg/kg): 5.0 | On-set time Mean ± S.E.M. ([1]; 10 mg/kg): 289 ± 19 s | On-set time Median ([1]; 10 mg/kg): 265 s | Tremor score Mean ± S.E.M. ([1]; 10 mg/kg): 3.6 ± 0.6 | Tremor score Median ([1]; 10 mg/kg): 2.5 | On-set time Mean ± S.E.M. ([1]; 20 mg/kg): 367 ± 21 s | On-set time Median ([1]; 20 mg/kg): 375 s | Tremor score Mean ± S.E.M. ([1]; 20 mg/kg): 1.8 ± 0.1 | Tremor score Median ([1]; 20 mg/kg): 1.8

CC(OC(N)=O)C(O)c1ccccc1Cl (racemic) [Compound 3, 1-(2-chlorophenyl)-1-hydroxypropyl-2-carbamate]
PI(TD50/ED50 in MES) [3]: 12.0 | inhibition in vivo at 130 mg/kg [1]: 75%

C[C@H](OC(=O)NC1CC1)[C@@H](O)c1ccccc1Cl [Compound 25, 1-(2-chlorophenyl)-(R)-1-hydroxypropyl-(R)-2-N-cyclopropylcarbamate]
responders at 200 mg/kg ([2]; Mus musculus, po, read-out: Protection % (percentage of activity compared to the vehicle only)): 25%

C[C@H](OC(N)=O)[C@@H](O)c1cccc(Cl)c1Cl [Compound 38, 1-(2,3-dichlorophenyl)-(S)-1-hydroxypropyl-(S)-2-carbamate]
inhibition in vivo at 100 mg/kg [1]: 55%

CC(C)[C@H](OC(N)=O)[C@@H](O)c1c(Cl)cccc1Cl [Compound 42, 1-(2,6-dichlorophenyl)-(S)-1-hydroxy-3-methyl-butyl-(S)-2-carbamate]
inhibition in vivo at 100 mg/kg [1]: 71.7%

— patent publication US9872847B2 (priority 2013, dated 2018)
